The values that follow come from ChEMBL document CHEMBL5338716, “Synthesis and anti-trypanosomal evaluation of novel N-branched acyclic nucleoside phosphonates bearing 7-aryl-7-deazapurine nucleobase” (Eur J Med Chem, 2022).

SMILES strings stand for the structures.

For series [1], the system named is Trypanosoma brucei brucei. In words: Antitrypanosomal activity against Trypanosoma brucei brucei assessed as reduction in parasite growth by cell-based assay. The format is functional, organism-based.
The nature of series [2]: Cytotoxicity against human HepG2 cells assessed as cell growth inhibition. The format is toxicity, cell-based.
A short description of series [3]: Selectivity index, ratio of IC50 for human NHDF cells to EC50 for Trypanosoma brucei brucei. The format is functional.
Series [4] is described as follows: Cytotoxicity against human HL-60 cells assessed as cell growth inhibition. The format is toxicity, cell-based.
A short description of series [5]: Cytotoxicity against human HeLa S3 cells assessed as cell growth inhibition. Format: toxicity, cell-based.
Series [6] is described as follows: Cytotoxicity against human NHDF cells assessed as cell growth inhibition. Format: toxicity, cell-based.
Series [7] can be described thus: Cytotoxicity against human CCRF-CEM cells assessed as cell growth inhibition. The format is toxicity, cell-based.
Series [8] is described as follows: Binding affinity to Trypanosoma brucei […] assessed as inhibition constant.
A short description of series [9]: Selectivity index, ratio of EC50 for human MRC5 cells to EC50 for Trypanosoma brucei brucei. Format: functional.

In general, EC50 refers to the concentration needed to bring the measured effect to its halfway point. The term IC50 denotes the concentration at which inhibition is half-maximal. Broadly, the Ki is the equilibrium dissociation constant of an inhibitor or competing ligand from its target.

Consider `CCOC(=O)[C@H](Cc1ccccc1)NP(=O)(CCN(CC#N)CCn1cc(-c2ccc(OC)cc2)c2c(N)ncnc21)N[C@@H](Cc1ccccc1)C(=O)OCC`, for which the EC50 in [1] amounted to 2.24 µM. For the same molecule, the IC50 in series [2] is above 20 µM; in [4], 6.7 µM; in series [5], above 20 µM; in series [6] it was 7.9 µM; in [7] it was 4.2 µM. For the same molecule, the “Selectivity Index” value in series [3] is on record as 3.5.
With `N#CCCN(CCn1cc(-c2ccccc2)c2c(N)ncnc21)CCP(=O)(O)O`, in series [8], the Ki worked out at 1.73 µM.
On the same count and under the same terms, the figure for `COc1ccc(-c2cn(CCN(CCC#N)CCP(=O)(O)O)c3ncnc(N)c23)cc1` is 2.2 µM.
`CCOC(=O)[C@H](Cc1ccccc1)NP(=O)(CCN(CCO)CCn1cc(-c2ccc(OC)cc2)c2c(N)ncnc21)N[C@@H](Cc1ccccc1)C(=O)OCC`: in series [1], the EC50 came out at 3.47 µM. For the same molecule, the IC50 is above 20 µM in series [2]; above 20 µM in series [4]; above 20 µM in series [5]; 13.2 µM in [6]; 6.2 µM in series [7]. The “Selectivity Index” value in series [3] stood at 3.8.
As to `CCOC(=O)[C@H](Cc1ccccc1)NP(=O)(CCN(CCn1cc(-c2ccc(OC)cc2)c2c(N)ncnc21)CCP(=O)(N[C@@H](Cc1ccccc1)C(=O)OCC)N[C@@H](Cc1ccccc1)C(=O)OCC)N[C@@H](Cc1ccccc1)C(=O)OCC`, the EC50 in series [1] stood at 0.58 µM. For the same molecule, the concentration for half-maximal inhibition (IC50) is 6.6 µM in series [2]; 4.6 µM in series [4]; 5.4 µM in series [5]; 9.5 µM in series [6]; 4 µM in [7]. Moreover, in [3], the “Selectivity Index” value was 16.4.
`N#CCN(CCn1cc(-c2ccccc2)c2c(N)ncnc21)CCP(=O)(O)O`: the Ki in series [8] came out at 9.5 µM.
`CCOC(=O)[C@H](Cc1ccccc1)NP(=O)(CCN(CC#N)CCn1cc(-c2ccccc2)c2c(N)ncnc21)N[C@@H](Cc1ccccc1)C(=O)OCC`: the EC50 in series [1] is 1.61 µM. Moreover, the IC50 in [2] was above 20 µM; in series [4], 8.7 µM; in [5], 11 µM; in [6], 10.4 µM; in series [7], 5.9 µM. The “Selectivity Index” value in series [3] came to 6.5.
Regarding `CCOC(=O)[C@H](Cc1ccccc1)NP(=O)(CCN(CCC#N)CCn1cc(-c2ccc(OC)cc2)c2c(N)ncnc21)N[C@@H](Cc1ccccc1)C(=O)OCC`, in series [1], the EC50 was 6.81 µM. Moreover, the IC50 in [2] was above 20 µM; in [4], above 20 µM; in series [5], above 20 µM; in [6], 16.4 µM; in [7], above 20 µM. Further, the “Selectivity Index” value in series [3] came to 2.4.
In the case of `Nc1ncnc2c1c(-c1ccccc1)cn2CCN(CCP(=O)(O)O)CCP(=O)(O)O`, in [8], the Ki came to 10.7 µM.
Still for that read-out and setting: the value for `COc1ccc(-c2cn(CCN(CC#N)CCP(=O)(O)O)c3ncnc(N)c23)cc1` was 10.9 µM; that for `Nc1ncnc2c1c(-c1ccccc1)cn2CCN(CCO)CCP(=O)(O)O` was 14.1 µM.
With `CCOC(=O)[C@H](Cc1ccccc1)NP(=O)(CCN(CCC#N)CCn1cc(-c2ccccc2)c2c(N)ncnc21)N[C@@H](Cc1ccccc1)C(=O)OCC`, in [1], the EC50 turned out to be 4.19 µM. The concentration for half-maximal inhibition (IC50) in series [2] is 14.1 µM; in series [4], 8.6 µM; in series [5], above 20 µM; in series [6], above 20 µM; in [7] it was 5.6 µM. For the same molecule, in series [3], the “Selectivity Index” value was above 4.8.
On to `CCOC(=O)[C@H](Cc1ccccc1)NP(=O)(CCN(CCn1cc(-c2ccccc2)c2c(N)ncnc21)CCP(=O)(N[C@@H](Cc1ccccc1)C(=O)OCC)N[C@@H](Cc1ccccc1)C(=O)OCC)N[C@@H](Cc1ccccc1)C(=O)OCC`, for which the EC50 in [1] is 1.21 µM. Moreover, the IC50 in series [2] came out at 6.3 µM; in series [4], 4.2 µM; in series [5] it was 4.9 µM; in [6], 8.9 µM; in [7] it was 3.8 µM. In addition, in series [3], the “Selectivity Index” value came to 7.4.
Regarding `COc1ccc(-c2cn(CCN(CCO)CCP(=O)(O)O)c3ncnc(N)c23)cc1`, the Ki in series [8] was determined as 2.25 µM.
For the molecule `CCOC(=O)[C@H](Cc1ccccc1)NP(=O)(CCN(CCO)CCn1cc(-c2ccccc2)c2c(N)ncnc21)N[C@@H](Cc1ccccc1)C(=O)OCC`, the concentration giving a half-maximal response (EC50) in series [1] came out at 1.9 µM. Also, the IC50 was 14.7 µM in series [2]; above 20 µM in [4]; above 20 µM in series [5]; 18.9 µM in series [6]; 6.7 µM in series [7]. Moreover, the “Selectivity Index” value in series [3] is on record as 10.
In the case of `COc1ccc(-c2cn(CCN(CCP(=O)(O)O)CCP(=O)(O)O)c3ncnc(N)c23)cc1`, the Ki in series [8] was found to be 3.97 µM.
As to `Nc1ncnc2c1ccn2[C@@H]1O[C@H](CO)[C@@H](O)[C@H]1O` [TUBERCIDIN], in series [1], the concentration giving a half-maximal response (EC50) was determined as 0.16 µM. Moreover, the “Ratio EC50” value in series [9] is recorded as 4. Further, the IC50 in [2] was determined as 0.05 µM; in series [4] it was 0.14 µM; in series [5], 0.1 µM; in series [6], 0.07 µM; in series [7], 0.11 µM. In series [3], the “Selectivity Index” value is 0.4. Besides, in [8], the Ki was around 330 µM.
